Experimental data reported in US4504655A, “Substances potentiating the activity of antibiotics and their production” (Takeda Chemical Industries, Ltd., priority 1981, dated 1985).

Columns and labels:
Type in all cases: cell-based
[1] = test system: Escherichia coli IFO 12734; experiment: Antibiotic-potentiating activity, paper disc growth inhibition zone, Escherichia coli IFO 12734
Method: The potency of the compound of the formula (II) can be determined, for instance, by the cup method or paper disc method using bouillon agar containing 0.05 μg/ml of cefmenoxime with Escherichia coli IFO 12734 as the test organism. […]
(§1) *The test was performed using a bouillon agar medium containing the
antibiotic as specified and a paper disc, 8 mm in diameter.
**A paper disc, 8 mm in diameter, was impregnated with 25 μl of the […]

[2] = test system: Escherichia coli IFO 12734; experiment: Inhibition of growth of Escherichia coli in liquid culture (absorbance at 600 nm); conditions: 37° C., 2 hours
[3] = test system: Escherichia coli IFO 12734; experiment: as above; conditions: for Absorbance at 600 nm: 37° C., 2 hours
Method: Table 5: Inhibition of growth of Escherichia coli IFO 12734 in the copresence of F2 (obtained in Example 1) and cephalexin or cefmenoxime.
(§2) To 8 ml of YAB medium (1.75% Difco antibiotic medium No. 3, 0.5% Difco yeast extract) containing 12% (w/v) of sucrose, there were added 1 ml of water, 50 μg/ml cephalexin solution or 10 μg/ml cefmenoxime solution, and the medium was inoculated with 1 ml of a preculture in YAB medium at an early logarithmic growth phase and incubated with shaking at 37° C. for 2 hours. Thereafter, the absorbance of the culture broth was measured at 600 nm using a Shimadzu-Bausch & Lomb Spectronic 20 colorimeter.

[4] = test system: Escherichia coli; experiment: Observation of the culture broths under a phase contrast microscope; conditions: in the presence of cephalexin or cefmenoxime
Method: as §2

[5] = test system: Proteus mirabilis ATCC 21100; experiment: Antibiotic-potentiating activity, paper disc growth inhibition zone, Proteus mirabilis ATCC 21100
Method: as §1
antibiotic as specified and a paper disc, 8 mm in diameter. […]
*The test was performed under the same conditions as noted for Table 1
except for the test organism and the concentration of each coexisting

[6] = F2 of Example 1, 1 μg/ml in test solution, no addition
[7] = F2 of Example 1, 5 μg/ml in test solution, no addition
[8] = F2 of Example 1, 25 μg/ml in test solution, no addition
[9] = F2 of Example 1, 125 μg/ml in test solution, no addition
[10] = F2 of Example 1, 1000 μg/ml in test solution, no addition
[11] = F2 of Example 3, 1 μg/ml in test solution, no addition
[12] = F2 of Example 3, 5 μg/ml in test solution, no addition
[13] = F2 of Example 3, 25 μg/ml in test solution, no addition
[14] = F2 of Example 3, 125 μg/ml in test solution, no addition
[15] = F2 of Example 3, 1000 μg/ml in test solution, no addition

CC(=O)NC1C(OC2CC(C(=O)NCCS(=O)(=O)O)NC2CO)OC(CO)C(OS(=O)(=O)O)C1O (stereo not drawn) [F2]
Diameter of growth inhibition zone ([1]; F2 of Example 1, 1 μg/ml in test solution, 0.03 μg/ml mecillinam): < 8 mm | Diameter of growth inhibition zone ([1]; F2 of Example 1, 1 μg/ml in test solution, 0.05 μg/ml cefmenoxime): 10 mm | Diameter of growth inhibition zone [1, 6]: < 8 mm | Diameter of growth inhibition zone ([1]; F2 of Example 1, 5 μg/ml in test solution, 0.03 μg/ml mecillinam): 10 mm | Diameter of growth inhibition zone ([1]; F2 of Example 1, 5 μg/ml in test solution, 0.05 μg/ml cefmenoxime): 15 mm | Diameter of growth inhibition zone [1, 7]: < 8 mm | Diameter of growth inhibition zone ([1]; F2 of Example 1, 25 μg/ml in test solution, 0.03 μg/ml mecillinam): 18 mm | Diameter of growth inhibition zone ([1]; F2 of Example 1, 25 μg/ml in test solution, 0.05 μg/ml cefmenoxime): 24 mm | Diameter of growth inhibition zone [1, 8]: < 8 mm | Diameter of growth inhibition zone ([1]; F2 of Example 1, 125 μg/ml in test solution, 0.03 μg/ml mecillinam): 24 mm | Diameter of growth inhibition zone ([1]; F2 of Example 1, 125 μg/ml in test solution, 0.05 μg/ml cefmenoxime): 32 mm | Diameter of growth inhibition zone [1, 9]: < 8 mm | Diameter of growth inhibition zone ([1]; F2 of Example 1, 1000 μg/ml in test solution, 0.03 μg/ml mecillinam): 30 mm | Diameter of growth inhibition zone ([1]; F2 of Example 1, 1000 μg/ml in test solution, 0.05 μg/ml cefmenoxime): 40 mm | Diameter of growth inhibition zone [1, 10]: < 8 mm | Diameter of growth inhibition zone ([1]; F2 of Example 3, 1 μg/ml in test solution, 0.03 μg/ml mecillinam): < 8 mm | Diameter of growth inhibition zone ([1]; F2 of Example 3, 1 μg/ml in test solution, 0.05 μg/ml cefmenoxime): 9 mm | Diameter of growth inhibition zone [1, 11]: < 8 mm | Diameter of growth inhibition zone ([1]; F2 of Example 3, 5 μg/ml in test solution, 0.03 μg/ml mecillinam): 9 mm | Diameter of growth inhibition zone ([1]; F2 of Example 3, 5 μg/ml in test solution, 0.05 μg/ml cefmenoxime): 14 mm | Diameter of growth inhibition zone [1, 12]: < 8 mm | Diameter of growth inhibition zone ([1]; F2 of Example 3, 25 μg/ml in test solution, 0.03 μg/ml mecillinam): 19 mm | Diameter of growth inhibition zone ([1]; F2 of Example 3, 25 μg/ml in test solution, 0.05 μg/ml cefmenoxime): 23 mm | Diameter of growth inhibition zone [1, 13]: < 8 mm | Diameter of growth inhibition zone ([1]; F2 of Example 3, 125 μg/ml in test solution, 0.03 μg/ml mecillinam): 23 mm | Diameter of growth inhibition zone ([1]; F2 of Example 3, 125 μg/ml in test solution, 0.05 μg/ml cefmenoxime): 31 mm | Diameter of growth inhibition zone [1, 14]: < 8 mm | Diameter of growth inhibition zone ([1]; F2 of Example 3, 1000 μg/ml in test solution, 0.03 μg/ml mecillinam): 29 mm | Diameter of growth inhibition zone ([1]; F2 of Example 3, 1000 μg/ml in test solution, 0.05 μg/ml cefmenoxime): 39 mm | Diameter of growth inhibition zone [1, 15]: < 8 mm | Absorbance at 600 nm ([2]; final F2 (Example 1) 10 μg/ml, 1 μg/ml cefmenoxime): 0.25 | Absorbance at 600 nm ([2]; final F2 (Example 1) 10 μg/ml, 5 μg/ml cephalexin): 1.00 | Absorbance at 600 nm ([2]; final F2 (Example 1) 100 μg/ml, 1 μg/ml cefmenoxime): 0.30 | Absorbance at 600 nm ([2]; final F2 (Example 1) 100 μg/ml, 5 μg/ml cephalexin): 0.95 | Absorbance at 600 nm ([2]; final F2 (Example 1) 100 μg/ml, no addition): 2.70 | Absorbance at 600 nm ([2]; final F2 (Example 3) 1 μg/ml, 1 μg/ml cefmenoxime): 0.55 | Absorbance at 600 nm ([2]; final F2 (Example 3) 1 μg/ml, 5 μg/ml cephalexin): 1.75 | Absorbance at 600 nm ([2]; final F2 (Example 3) 1 μg/ml, no addition): 2.45 | Absorbance at 600 nm ([2]; final F2 (Example 3) 10 μg/ml, 1 μg/ml cefmenoxime): 0.25 | Absorbance at 600 nm ([2]; final F2 (Example 3) 10 μg/ml, 5 μg/ml cephalexin): 1.90 | Absorbance at 600 nm ([2]; final F2 (Example 3) 10 μg/ml, no addition): 2.50 | Absorbance at 600 nm ([2]; final F2 (Example 3) 100 μg/ml, 1 μg/ml cefmenoxime): 0.25 | Absorbance at 600 nm ([2]; final F2 (Example 3) 100 μg/ml, 5 μg/ml cephalexin): 0.75 | Absorbance at 600 nm ([2]; final F2 (Example 3) 100 μg/ml, no addition): 2.55 | Absorbance at 600 nm ([3]; final F2 (Example 1) 1 μg/ml, 1 μg/ml cefmenoxime): 0.60 | Absorbance at 600 nm ([3]; final F2 (Example 1) 1 μg/ml, 5 μg/ml cephalexin): 1.80 | Absorbance at 600 nm ([3]; final F2 (Example 1) 1 μg/ml, no addition): 2.65 | Absorbance at 600 nm ([3]; final F2 (Example 1) 10 μg/ml, no addition): 2.65 | Inhibition of growth of Escherichia coli ([3]; in the presence of cephalexin or cefmenoxime, decrease in absorbance): inhibits the growth of Escherichia coli | Swelling and bacteriolysis under phase contrast microscope [4]: partial swelling occurred and bacteriolysis proceeded | Elongation of cells under phase contrast microscope ([4]; in dependence on the addition level): elongation was inhibited | Diameter of growth inhibition zone ([5]; F2 of Example 1, 1 μg/ml in test solution, 0.01 μg/ml cefmenoxime): 9 mm | Diameter of growth inhibition zone ([5]; F2 of Example 1, 1 μg/ml in test solution, 0.05 μg/ml mecillinam): 9 mm | Diameter of growth inhibition zone [5, 6]: < 8 mm | Diameter of growth inhibition zone ([5]; F2 of Example 1, 5 μg/ml in test solution, 0.01 μg/ml cefmenoxime): 13 mm | Diameter of growth inhibition zone ([5]; F2 of Example 1, 5 μg/ml in test solution, 0.05 μg/ml mecillinam): 11 mm | Diameter of growth inhibition zone [5, 7]: < 8 mm | Diameter of growth inhibition zone ([5]; F2 of Example 1, 25 μg/ml in test solution, 0.01 μg/ml cefmenoxime): 23 mm | Diameter of growth inhibition zone ([5]; F2 of Example 1, 25 μg/ml in test solution, 0.05 μg/ml mecillinam): 19 mm | Diameter of growth inhibition zone [5, 8]: < 8 mm | Diameter of growth inhibition zone ([5]; F2 of Example 1, 125 μg/ml in test solution, 0.01 μg/ml cefmenoxime): 30 mm | Diameter of growth inhibition zone ([5]; F2 of Example 1, 125 μg/ml in test solution, 0.05 μg/ml mecillinam): 26 mm | Diameter of growth inhibition zone [5, 9]: < 8 mm | Diameter of growth inhibition zone ([5]; F2 of Example 1, 1000 μg/ml in test solution, 0.01 μg/ml cefmenoxime): 38 mm | Diameter of growth inhibition zone ([5]; F2 of Example 1, 1000 μg/ml in test solution, 0.05 μg/ml mecillinam): 32 mm | Diameter of growth inhibition zone [5, 10]: < 8 mm | Diameter of growth inhibition zone ([5]; F2 of Example 3, 1 μg/ml in test solution, 0.01 μg/ml cefmenoxime): 9 mm | Diameter of growth inhibition zone ([5]; F2 of Example 3, 1 μg/ml in test solution, 0.05 μg/ml mecillinam): 9 mm | Diameter of growth inhibition zone [5, 11]: < 8 mm | Diameter of growth inhibition zone ([5]; F2 of Example 3, 5 μg/ml in test solution, 0.01 μg/ml cefmenoxime): 12 mm | Diameter of growth inhibition zone ([5]; F2 of Example 3, 5 μg/ml in test solution, 0.05 μg/ml mecillinam): 12 mm | Diameter of growth inhibition zone [5, 12]: < 8 mm | Diameter of growth inhibition zone ([5]; F2 of Example 3, 25 μg/ml in test solution, 0.01 μg/ml cefmenoxime): 22 mm | Diameter of growth inhibition zone ([5]; F2 of Example 3, 25 μg/ml in test solution, 0.05 μg/ml mecillinam): 19 mm | Diameter of growth inhibition zone [5, 13]: < 8 mm | Diameter of growth inhibition zone ([5]; F2 of Example 3, 125 μg/ml in test solution, 0.01 μg/ml cefmenoxime): 29 mm | Diameter of growth inhibition zone ([5]; F2 of Example 3, 125 μg/ml in test solution, 0.05 μg/ml mecillinam): 25 mm | Diameter of growth inhibition zone [5, 14]: < 8 mm | Diameter of growth inhibition zone ([5]; F2 of Example 3, 1000 μg/ml in test solution, 0.01 μg/ml cefmenoxime): 38 mm | Diameter of growth inhibition zone ([5]; F2 of Example 3, 1000 μg/ml in test solution, 0.05 μg/ml mecillinam): 32 mm | Diameter of growth inhibition zone [5, 15]: < 8 mm
